Assay [1] addresses T1, Prostaglandin G/H synthase 1 (Ovis aries, UniProt P05979).
T1 sequence (P05979 whole entry): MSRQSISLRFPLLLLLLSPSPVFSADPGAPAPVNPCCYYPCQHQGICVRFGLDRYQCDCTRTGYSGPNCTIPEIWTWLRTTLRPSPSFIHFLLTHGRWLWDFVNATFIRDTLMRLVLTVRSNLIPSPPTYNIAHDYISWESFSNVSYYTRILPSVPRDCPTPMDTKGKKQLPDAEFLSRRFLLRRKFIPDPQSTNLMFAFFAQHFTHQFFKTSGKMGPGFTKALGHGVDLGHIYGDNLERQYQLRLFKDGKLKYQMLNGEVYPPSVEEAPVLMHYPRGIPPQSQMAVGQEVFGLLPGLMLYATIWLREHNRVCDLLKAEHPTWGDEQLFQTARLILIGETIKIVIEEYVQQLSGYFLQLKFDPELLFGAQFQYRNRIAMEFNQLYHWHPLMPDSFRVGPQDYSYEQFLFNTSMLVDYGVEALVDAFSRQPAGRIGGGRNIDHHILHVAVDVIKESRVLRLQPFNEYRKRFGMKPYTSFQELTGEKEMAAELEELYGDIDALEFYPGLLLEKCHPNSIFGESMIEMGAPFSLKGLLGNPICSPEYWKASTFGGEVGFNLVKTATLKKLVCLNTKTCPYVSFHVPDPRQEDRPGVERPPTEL
Nature of the assay: In vitro inhibitory activity against prostaglandin G/H synthase 1 from ovine.

Assay [2] deals with T2, Prostaglandin G/H synthase 2 (Ovis aries, UniProt P79208).
T2 sequence (P79208 whole entry): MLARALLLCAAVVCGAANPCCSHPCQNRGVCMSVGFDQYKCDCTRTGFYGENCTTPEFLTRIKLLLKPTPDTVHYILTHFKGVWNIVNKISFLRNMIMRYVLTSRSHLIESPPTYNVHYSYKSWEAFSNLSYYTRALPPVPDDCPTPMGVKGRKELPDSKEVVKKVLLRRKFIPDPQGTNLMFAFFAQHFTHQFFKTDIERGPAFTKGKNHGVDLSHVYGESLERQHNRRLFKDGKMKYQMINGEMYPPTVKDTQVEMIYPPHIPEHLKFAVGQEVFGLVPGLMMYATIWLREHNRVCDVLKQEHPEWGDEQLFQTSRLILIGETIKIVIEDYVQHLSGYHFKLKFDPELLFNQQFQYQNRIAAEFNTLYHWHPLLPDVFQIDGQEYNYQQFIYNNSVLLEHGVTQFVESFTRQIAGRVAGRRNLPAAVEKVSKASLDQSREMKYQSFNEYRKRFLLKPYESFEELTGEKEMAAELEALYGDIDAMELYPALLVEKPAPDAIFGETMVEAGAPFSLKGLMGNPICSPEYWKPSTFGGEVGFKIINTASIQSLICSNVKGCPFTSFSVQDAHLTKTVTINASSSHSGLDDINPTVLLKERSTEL
The assay is described as follows: In vitro inhibitory activity against prostaglandin G/H synthase 2 from ovine.

One may read the IC50 as the point on the concentration scale where inhibition reaches its midpoint. A lower IC50 goes with greater potency.

Each structure is given as a SMILES string.

In the case of `CS(=O)(=O)c1ccc(C2=C(c3ccc(S(N)(=O)=O)cc3)COC2=O)cc1`, the half-maximal inhibitory concentration (IC50) in assay [1] and in assay [2] was above 100 µM in each case.
`CS(=O)(=O)c1ccc(C2=C(c3ccc(S(=O)(=O)N=[N+]=[N-])cc3)COC2=O)cc1`: the IC50 in assay [1] was above 100 µM; in assay [2], 3.1 µM.
For `CC(=O)NS(=O)(=O)c1ccc(C2=C(c3ccc(S(C)(=O)=O)cc3)C(=O)OC2)cc1`, the IC50 in assay [1] is above 100 µM; in assay [2], 0.05 µM.
For the compound `CS(=O)(=O)c1ccc(C2=C(c3ccc(S(=O)(=O)N=[N+]=[N-])cc3)C(=O)OC2)cc1`, the IC50 in assay [1] worked out at 31.5 µM; in assay [2], 11 µM.
In the case of `CS(=O)(=O)c1ccc(C2=C(c3ccc(S(N)(=O)=O)cc3)C(=O)OC2)cc1`, the IC50 in assay [1] and in assay [2] was above 100 µM each time.
`CC(=O)NS(=O)(=O)c1ccc(C2=C(c3ccc(S(C)(=O)=O)cc3)COC2=O)cc1`: the IC50 worked out at 3.2 µM in assay [1] and 4.6 µM in assay [2].
Take `CS(=O)(=O)c1ccc(C2=C(c3ccccc3)C(=O)OC2)cc1` [ROFECOXIB]: in assay [2], the IC50 was above 0.43 µM.

The values are drawn from ChEMBL document CHEMBL1147521 (Bioorg Med Chem Lett, 2004).
